Results as given in patent US20020137929A1, “1 - (3-heterocyclylphenyl) isothiourea, -isourea, -guanidine and -amidine herbicidal agents” (Intellectual Property Department, BASF Aktiengesellschaft, priority 1998, published 2002).

Columns and labels:
[1] = test system: ECHORC (Watergrass (Calif.)); experiment: Preemergence weed control under flooded paddy conditions; assay type: in vivo, Echinochloa oryzoides; details: rated 3-4 weeks after treatment
Method in brief: (§1)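 Seeds or propagules sown in silt loam kept flooded 1.5-3 cm; compounds in 50/50 acetone/water pipetted into flood water at about 0.0313 to 0.500 kg/ha. Greenhouse; visual 0-9 rating versus untreated control 3-4 weeks after treatment.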

[2] = test system: SETVI (Foxtail, Green); experiment: Preemergence herbicidal evaluation; assay type: in vivo, Setaria viridis; details: rated 4-5 weeks after treatment, rating scale 0-9
Method in brief: (§2)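 Seeds were planted in potting soil in cups, then sprayed preemergence with the test compound in aqueous acetone at about 0.0156 to 0.500 kg per hectare. Cups were kept under greenhouse conditions and visually rated 4–5 weeks after treatment on a 0–9 scale against an untreated control.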

[3] = test system: CYPIR (Rice Flatsedge); experiment: Preemergence weed control under flooded paddy conditions; assay type: in vivo, Cyperus iria; details: rated 3-4 weeks after treatment
Method in brief: as §1

[4] = test system: ABUTH (Velvetleaf); experiment: Preemergence herbicidal evaluation; assay type: in vivo, Abutilon theophrasti; details: rated 4-5 weeks after treatment, rating scale 0-9
Method in brief: as §2

[5] = test system: IPOHE (Morningglory, Ivyleaf); experiment: Postemergence herbicidal evaluation; assay type: in vivo, Ipomoea hederacea; details: postemergence
Method in brief: (§3)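 Young plants, roughly two weeks from seeding, receive the active ingredient as a sprayed dispersion (acetone/water 50/50, 0.5% TWEEN 20) at 40 psi. Doses span about 0.0156 to 0.500 kg/ha. A visual score from 0 to 9 compares treated with control plants four to five weeks on.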

[6] = test system: GALAP (Galium); experiment: Postemergence herbicidal evaluation; assay type: in vivo, Galium aparine; details: postemergence
Method in brief: as §3

[7] = test system: MOOVA (Monochoria); experiment: Preemergence weed control under flooded paddy conditions; assay type: in vivo, Monochoria vaginalis; details: rated 3-4 weeks after treatment
Method in brief: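 Herbicidal effect is scored visually on a 0-9 scale against an untreated control, three to four weeks after compounds are pipetted into the flood water (1.5 to 3 cm deep) over seeds planted in silt loam at 0.5 cm depth. Rates: about 0.0313 to 0.500 kg/ha.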

[8] = test system: ZEAMX (Corn, Field); experiment: Preemergence herbicidal evaluation; assay type: in vivo, Zea mays; details: rated 4-5 weeks after treatment, rating scale 0-9
Method in brief: as §2

[9] = test system: TRZAWR (Wheat, Winter, cv Riband); experiment: Postemergence herbicidal evaluation; assay type: in vivo, Triticum aestivum; details: postemergence
Method in brief: as §3

[10] = test system: ECHCG (Barnyardgrass); experiment: Preemergence herbicidal evaluation; assay type: in vivo, Echinochloa crus-galli; details: rated 4-5 weeks after treatment, rating scale 0-9
Method in brief: as §2

[11] = test system: SETVI (Foxtail, Green); experiment: Postemergence herbicidal evaluation; assay type: in vivo, Setaria viridis; details: postemergence
Method in brief: as §3

[12] = test system: IPOHE (Morningglory, Ivyleaf); experiment: Preemergence herbicidal evaluation; assay type: in vivo, Ipomoea hederacea; details: rated 4-5 weeks after treatment, rating scale 0-9
Method in brief: as §2

Cn1c(C(F)(F)F)cc(=O)n(-c2cc(N=C3SCC(=O)N3C3CC3)c(Cl)cc2F)c1=O [Compound 152, 3-{4-Chloro-5-[(3-cyclopropyl-4-oxo-2-thiazolidinylidene)amino]-2-fluorophenyl}-1-methyl-6-(trifluoromethyl)-2,4(1H,3H)-pyrimidinedione]
0.0: herbicidal effect rating, ECHORC ([1]; 0.0625 kg/ha) | herbicidal effect rating, ECHORC ([1]; 0.1250 kg/ha) | herbicidal effect rating, ECHORC ([1]; 0.2500 kg/ha) | Preemergence herbicidal rating SETVI ([2]; rate 0.0313 kg/ha) | herbicidal effect rating, CYPIR ([3]; 0.0625 kg/ha) | herbicidal effect rating, CYPIR ([3]; 0.1250 kg/ha) | herbicidal effect rating, CYPIR ([3]; 0.2500 kg/ha) | Preemergence herbicidal rating ABUTH ([4]; rate 0.0313 kg/ha) | Preemergence herbicidal rating ABUTH ([4]; rate 0.0625 kg/ha) | herbicidal rating GALAP ([6]; rate 0.0156 kg/ha) | herbicidal rating GALAP ([6]; rate 0.0313 kg/ha) | Preemergence herbicidal rating ZEAMX ([8]; rate 0.0313 kg/ha) | Preemergence herbicidal rating ECHCG ([10]; rate 0.0313 kg/ha) | Preemergence herbicidal rating ECHCG ([10]; rate 0.0625 kg/ha) | herbicidal rating SETVI ([11]; rate 0.0156 kg/ha) | Preemergence herbicidal rating IPOHE ([12]; rate 0.0313 kg/ha)
2.0: herbicidal rating GALAP ([6]; rate 0.0625 kg/ha) | Preemergence herbicidal rating ZEAMX ([8]; rate 0.2500 kg/ha)
9.0: Preemergence herbicidal rating SETVI ([2]; rate 0.2500 kg/ha) | Preemergence herbicidal rating ABUTH ([4]; rate 0.1250 kg/ha) | Preemergence herbicidal rating ABUTH ([4]; rate 0.2500 kg/ha) | herbicidal rating IPOHE ([5]; rate 0.0313 kg/ha) | herbicidal rating IPOHE ([5]; rate 0.0625 kg/ha)
7.0: herbicidal rating IPOHE ([5]; rate 0.0156 kg/ha) | Preemergence herbicidal rating IPOHE ([12]; rate 0.2500 kg/ha)
3.5: herbicidal rating TRZAWR ([9]; rate 0.0313 kg/ha)
3.0: herbicidal effect rating, MOOVA ([7]; 0.0625 kg/ha) | herbicidal effect rating, MOOVA ([7]; 0.1250 kg/ha) | herbicidal effect rating, MOOVA ([7]; 0.2500 kg/ha) | herbicidal rating TRZAWR ([9]; rate 0.0156 kg/ha) | herbicidal rating SETVI ([11]; rate 0.0313 kg/ha) | herbicidal rating SETVI ([11]; rate 0.0625 kg/ha)
4.0: herbicidal rating TRZAWR ([9]; rate 0.0625 kg/ha) | Preemergence herbicidal rating IPOHE ([12]; rate 0.1250 kg/ha)
1.0: Preemergence herbicidal rating SETVI ([2]; rate 0.0625 kg/ha) | Preemergence herbicidal rating SETVI ([2]; rate 0.1250 kg/ha) | Preemergence herbicidal rating ZEAMX ([8]; rate 0.0625 kg/ha) | Preemergence herbicidal rating ZEAMX ([8]; rate 0.1250 kg/ha) | Preemergence herbicidal rating ECHCG ([10]; rate 0.1250 kg/ha) | Preemergence herbicidal rating ECHCG ([10]; rate 0.2500 kg/ha) | Preemergence herbicidal rating IPOHE ([12]; rate 0.0625 kg/ha)
